# In ChEMBL document CHEMBL1201862, “PubChem BioAssay data set” (2004):
# The source made the active and inactive calls.
# Key:
# HEK293 [1] = test: cells; type: functional, cell-based; settings: Homo sapiens
# [2] = biological target: Nucleotide-binding oligomerization domain-containing protein 2 (Homo sapiens, UniProt Q9HC29); test: NOD2 signaling inhibitors, cell-based, luminescence, uHTS, HEK293 (AID 1566); type: functional
# [3] = biological target: Dual specificity tyrosine-phosphorylation-regulated kinase 1A (Rattus norvegicus, UniProt Q63470); type: biochemical, Homo sapiens
# HEK293 [4] = test: NOD2 signaling inhibitors in MDP-stimulated cells, cell-based, uHTS, luminescence (AID 2001); type: functional; settings: Homo sapiens
# HEK293 [5] = test: NOD1 signaling inhibitors, primary screen, cell-based, luminescence, uHTS (AID 1578); type: functional; settings: Homo sapiens
# HEK293 [6] = test: cells; type: functional, cell-based; settings: Homo sapiens; remark: listed apart in the source
# HEK293 [7] = test: cells; type: functional, cell-based; settings: Homo sapiens; remark: listed apart in the source
# [8] = biological target: Beta-2 adrenergic receptor (Homo sapiens, UniProt P07550); test: beta2AR agonists driving receptor internalization, dose response, cell-based, FAP fluorogen, flow cytometry, cherry pick 1 (AID 588763); type: functional
# Vero = Vero cell cytotoxicity, cytotoxicity control for flavivirus capping enzyme inhibitors (AID 588742); type: functional; settings: Chlorocebus sabaeus
# [9] = biological target: T1, High affinity choline transporter 1 (Homo sapiens, UniProt Q9GZV3); test: CHT inhibitors, dose response, cell-based, 5-point CRC, membrane potential dye (AID 504840); type: functional
# T1 sequence (Q9GZV3 whole entry): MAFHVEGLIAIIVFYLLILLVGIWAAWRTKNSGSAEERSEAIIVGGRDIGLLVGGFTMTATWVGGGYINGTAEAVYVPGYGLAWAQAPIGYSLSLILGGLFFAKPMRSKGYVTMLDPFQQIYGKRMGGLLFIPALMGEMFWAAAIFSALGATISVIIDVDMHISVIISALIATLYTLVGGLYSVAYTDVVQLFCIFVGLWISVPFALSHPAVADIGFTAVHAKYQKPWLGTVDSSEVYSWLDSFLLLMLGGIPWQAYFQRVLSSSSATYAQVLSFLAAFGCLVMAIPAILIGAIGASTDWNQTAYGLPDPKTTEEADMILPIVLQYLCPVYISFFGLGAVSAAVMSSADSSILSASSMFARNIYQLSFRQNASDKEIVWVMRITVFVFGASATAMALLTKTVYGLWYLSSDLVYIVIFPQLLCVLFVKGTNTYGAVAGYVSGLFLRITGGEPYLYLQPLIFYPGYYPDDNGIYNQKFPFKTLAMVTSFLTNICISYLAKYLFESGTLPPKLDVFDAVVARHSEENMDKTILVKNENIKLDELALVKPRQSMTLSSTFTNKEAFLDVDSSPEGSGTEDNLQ
# [10] = biological target: T2, Heat shock factor protein 1 (Mus musculus, UniProt P38532); test: HSF1 potentiators in luciferase reporter cells, confirmation, cell-based, NIH3T3, luminescence, dose retest (AID 435004); type: functional;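 also: stress induced by proteasome inhibitor MG132 added 30 min after compound; luciferase reporter driven by HSF1 response element in NIH3T3 cells; actives raise luminescence as potentiators of the MG132 stress response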
# T2 sequence (P38532 whole entry): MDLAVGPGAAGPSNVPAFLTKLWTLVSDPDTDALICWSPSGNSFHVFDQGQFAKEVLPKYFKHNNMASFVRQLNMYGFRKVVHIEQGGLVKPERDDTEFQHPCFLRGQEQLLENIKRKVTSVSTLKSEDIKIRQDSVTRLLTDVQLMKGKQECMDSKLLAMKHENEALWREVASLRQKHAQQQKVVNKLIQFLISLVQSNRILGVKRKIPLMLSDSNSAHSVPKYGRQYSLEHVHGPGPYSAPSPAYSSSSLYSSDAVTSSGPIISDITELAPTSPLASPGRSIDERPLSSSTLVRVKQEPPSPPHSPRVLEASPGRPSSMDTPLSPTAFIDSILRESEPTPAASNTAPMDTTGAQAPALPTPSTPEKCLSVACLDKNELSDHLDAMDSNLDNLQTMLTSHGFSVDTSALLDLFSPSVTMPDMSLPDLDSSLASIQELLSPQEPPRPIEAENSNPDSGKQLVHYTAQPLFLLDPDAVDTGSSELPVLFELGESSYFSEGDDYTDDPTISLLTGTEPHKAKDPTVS
# Chain of Beta-2 adrenergic receptor (P07550 whole entry): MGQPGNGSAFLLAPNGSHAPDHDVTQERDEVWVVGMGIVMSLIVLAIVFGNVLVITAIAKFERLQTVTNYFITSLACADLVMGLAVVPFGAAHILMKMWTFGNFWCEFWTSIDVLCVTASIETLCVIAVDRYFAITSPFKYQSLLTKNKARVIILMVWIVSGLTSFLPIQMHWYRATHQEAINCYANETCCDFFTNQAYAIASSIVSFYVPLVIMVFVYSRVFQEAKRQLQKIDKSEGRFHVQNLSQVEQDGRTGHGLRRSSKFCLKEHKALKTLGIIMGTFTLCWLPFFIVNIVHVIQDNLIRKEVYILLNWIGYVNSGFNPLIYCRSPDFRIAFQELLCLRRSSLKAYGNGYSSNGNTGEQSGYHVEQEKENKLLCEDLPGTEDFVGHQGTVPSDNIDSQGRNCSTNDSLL
# Chain of Nucleotide-binding oligomerization domain-containing protein 2 (Q9HC29 whole entry, the tested form may be a part): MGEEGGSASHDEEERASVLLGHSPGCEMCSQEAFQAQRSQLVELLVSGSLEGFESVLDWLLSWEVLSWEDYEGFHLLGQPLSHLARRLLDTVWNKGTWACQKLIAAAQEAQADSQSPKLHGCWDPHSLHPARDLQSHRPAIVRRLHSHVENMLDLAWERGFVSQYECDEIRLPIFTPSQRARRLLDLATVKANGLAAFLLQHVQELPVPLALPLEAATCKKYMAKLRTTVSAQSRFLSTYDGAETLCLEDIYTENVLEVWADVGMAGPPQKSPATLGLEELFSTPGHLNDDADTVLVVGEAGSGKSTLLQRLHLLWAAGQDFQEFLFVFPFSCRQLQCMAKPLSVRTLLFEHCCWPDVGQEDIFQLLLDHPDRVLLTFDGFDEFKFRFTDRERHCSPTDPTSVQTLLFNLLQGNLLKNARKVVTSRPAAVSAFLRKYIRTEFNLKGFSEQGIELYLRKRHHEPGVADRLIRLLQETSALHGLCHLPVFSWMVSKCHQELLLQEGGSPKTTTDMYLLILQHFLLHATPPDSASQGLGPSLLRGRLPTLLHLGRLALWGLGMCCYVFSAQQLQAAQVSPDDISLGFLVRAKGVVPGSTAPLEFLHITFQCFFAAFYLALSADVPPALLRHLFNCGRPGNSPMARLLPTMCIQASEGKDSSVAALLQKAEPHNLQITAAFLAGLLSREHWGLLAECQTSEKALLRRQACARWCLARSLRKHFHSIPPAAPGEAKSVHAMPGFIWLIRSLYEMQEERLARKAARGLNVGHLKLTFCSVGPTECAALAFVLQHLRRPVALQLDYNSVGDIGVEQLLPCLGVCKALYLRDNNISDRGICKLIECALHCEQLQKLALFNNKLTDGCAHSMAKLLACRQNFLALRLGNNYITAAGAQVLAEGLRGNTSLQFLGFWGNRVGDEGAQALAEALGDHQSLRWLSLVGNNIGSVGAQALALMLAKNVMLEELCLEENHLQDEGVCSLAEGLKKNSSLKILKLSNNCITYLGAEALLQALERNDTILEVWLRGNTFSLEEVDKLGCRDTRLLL
SMILES,IC50 (HEK293 [1]),EC50 [2],AC50 [3],IC50 (HEK293 [4]),EC50 (HEK293 [5]),IC50 (HEK293 [6]),IC50 (HEK293 [7]),EC50 [8],CC50 (Vero),IC50 [9],EC50 [10]
CN(C)S(=O)(=O)c1cccc(NC(S)=Nc2cccc3cnccc23)c1,> 20 µM (inactive),9.33 µM (active),3.86 µM (active),4.64 µM (active),10.6 µM (active),3.39 µM (active),13.4 µM (active),–,–,–,–
CCN(CC)S(=O)(=O)c1cc(NC(=O)C2=COCCO2)ccc1Cl,–,–,–,–,–,–,–,0.038 µM (active),–,–,–
Cc1ccccc1N1C(=O)NC(=O)/C(=C\c2c(-c3ccccc3)[nH]c3ccccc23)C1=O,–,–,–,15.4 µM (inactive),6.37 µM (active),8.69 µM (active),> 20 µM (inactive),–,23.2 µM (active),11 µM (active),–
COc1ccc(/C=c2\s/c(=C\C(=O)C(C)(C)C)[nH]c2=O)cc1O,–,–,4.65 µM (active),–,–,–,–,–,–,–,41.8 µM (active)
